Like-named read-outs stand apart in the source and are kept apart here.
What was measured:
CD1 mice = conditions: mouse, in vivo, sc; for effect on rotarod latencies (motor behavior): 7.5 mg/kg
human DOP receptor [1] = biological target: T1, human DOP receptor (Homo sapiens, UniProt P41143); conditions: CHO-hDOP membranes; ref 9a; read-out: receptor binding affinity Ki DOP; cited from earlier work
T1 construct: expressed in transfected cells; host or cells: CHO-hDOP cells (gift of Dr. Lawrence Toll, SRI International)

[2] = tested on: acetic acid-induced writhing in CD1 mice; conditions: mouse, in vivo, sc; cited from earlier work
mice = conditions: icv, ref 9d; cited from earlier work
human KOP receptor [3] = biological target: T2, human KOP receptor (Homo sapiens, UniProt P41145); assay: Competition binding assay, CHO-hKOP cell membranes, [3H]U69,593; conditions: for Ki: CHO-hKOP membranes, mean ± SEM, read-out: receptor binding affinity Ki KOP; for selectivity DOP/KOP: Ki ratio DOP/KOP; for selectivity MOP/KOP: Ki ratio MOP/KOP
T2 construct: expressed in transfected cells; host or cells: CHO-hKOP cells (gift of Dr. Lawrence Toll, SRI International)
Procedure: (§1) CHO cells stably expressing recombinant human KOP, MOP, or DOP receptors (CHO-hKOP, CHO-hMOP, and CHO-hDOP cell lines) were kindly provided by Dr. Lawrence Toll (SRI International, Menlo Park, CA). The CHO-hKOP cell line was maintained in Dulbecco’s Minimal Essential Medium (DMEM) supplemented with fetal bovine serum (FBS, 10%), penicillin/streptomycin (0.1%), L-glutamine (2 mM), and geneticin (400 μg/mL). The CHO-hMOP and CHO-hDOP cell lines were maintained in DMEM/Ham’s F-12 medium supplemented with FBS (10%), penicillin/streptomycin (0.1%), L-glutamine (2 mM), and geneticin (400 μg/mL). Cell cultures were maintained at 37 °C in 5% CO2 humidified air.
(§2) Nonspecific binding was determined using 1–10 μM of the unlabeled counterpart of each radioligand. Assays were performed in 50 mM Tris-HCl buffer (pH 7.4) in a final volume of 1 mL. Cell membranes (15–20 μg) were incubated with the appropriate radioligand and various concentrations of test compound for 60 min at 25 °C. After incubation, reactions were terminated by rapid filtration through Whatman glass fiber filters. Filters were washed three times with 5 mL of ice-cold 50 mM Tris-HCl buffer (pH 7.4) using a Brandel M24R cell harvester (Gaithersburg, MD). Radioactivity retained on the filters was counted by liquid scintillation counting using a Beckman Coulter LS6500 (Beckman Coulter Inc., Fullerton, CA). All binding experiments were performed in duplicate and repeated at least three times. The inhibitory constant Ki values (in nM) were calculated from the competition binding curves by nonlinear regression analysis and the Cheng–Prusoff equation.[16]

human MOP receptor = biological target: T3, human MOP receptor (Homo sapiens, UniProt P35372); assay: Competition binding assay, CHO-hMOP cell membranes, [3H]DAMGO; conditions: mean ± SEM, read-out: receptor binding affinity Ki MOP
T3 construct: expressed in transfected cells; host or cells: CHO-hMOP cells (gift of Dr. Lawrence Toll, SRI International)
Procedure: as §1
as §2, with “. Nonspecific” for “Nonspecific”

human DOP receptor [4] = biological target: T1, human DOP receptor; assay: Competition binding assay, CHO-hDOP cell membranes, [3H]diprenorphine; conditions: mean ± SEM, read-out: receptor binding affinity Ki DOP
Procedure: as §1
as §2, with “. Nonspecific” for “Nonspecific”

human KOP receptor [5] = biological target: T2, human KOP receptor; assay: [35S]GTPγS binding assay using CHO-hKOP cell membranes; type: biochemical; conditions: for EC50: CHO-hKOP membranes, mean ± SEM; for Emax: read-out: [35S]GTPγS KOP % stim
Procedure: The binding of [^35S]GTPγS to membranes from CHO cells stably expressing human KOP receptors (CHO-hKOP cells) was conducted according to the published procedures.[9a],[9b] CHO-hKOP cell membranes were prepared in buffer A (20 mM HEPES, 10 mM MgCl2, and 100 mM NaCl, pH 7.4). Cell membranes (8–15 μg) in buffer A were incubated with 0.05 nM [^35S]GTPγS, 10 μM GDP, and various concentrations of test compound in a final volume of 1 mL for 60 min at 25 °C. Nonspecific binding was determined using 10 μM GTPγS, and the basal binding was determined in the absence of test ligand. Samples are filtered over glass fiber filters and counted as described for binding assays. […] To determine the KOP antagonist activity, a concentration–response curve for U69,593 was obtained by assessing the [^35S]GTPγS binding to CHO-hKOP cell membranes in the presence or absence of test compound, as previously described.[9b] For each compound, the Schild analysis was conducted, utilizing a full agonist–dose response curve in the presence of at least two concentrations of the antagonist. The equilibrium dissociation constant (Ke) was calculated from the equation Ke = [a]/(DR – 1), where “a” is the concentration of antagonist and DR the virtual shift of the agonist concentration–response curve to the right in the presence of a given concentration of antagonist. All experiments were performed in duplicate and repeated at least three times.

[6] = tested on: acetic acid-induced writhing in CD1 mice; assay: Acetic acid-induced writhing assay in mice after sc administration; type: in vivo; conditions: for ED50: Mus musculus, 0.5 h, CD1 mice, inhibition of writhing at 30 min after drug administration, read-out: antinociceptive ED50 (95% CI); for antagonism by nor-BNI of the antinociceptive effect: nor-BNI 20 mg/kg sc 24 h before agonist (2: 5 mg/kg; 3: 1 mg/kg; 4: […] sc)
Procedure: Male CD1 mice (30–35 g, 6–8 weeks old) were obtained from the Center of Biomodels and Experimental Medicine (CBEM) (Innsbruck, Austria) or Charles River (Sulzfeld, Germany). Mice were group-housed in a temperature controlled room with a 12 h light/dark cycle and with free access to food and water. All animal studies were conducted in accordance with ethical guidelines and animal welfare standards according to Austrian regulations for animal research and were approved by the Committee of Animal Care of the Austrian Federal Ministry of Science and Research. Solutions of test compounds were prepared as 1% DMSO solutions in sterile physiological 0.9% saline and further diluted to working doses in saline solution. Test compounds or vehicle (saline) were administered by sc route in a volume of 10 μL/1 g of body weight. All doses are expressed in terms of salts. Separate groups of mice received the respective dose of compound, and individual mice were only used once for behavioral testing. Each experimental group included at least five animals.
Writhing was induced in male CD1 mice by intraperitoneal (ip) injection of a 0.6% acetic acid aqueous solution as described previously.[9a] Groups of mice were administered sc different doses of test compound or saline (control), and then 5 min prior to testing (25 min after drug or saline) each animal received an ip injection of acetic acid solution. Each mouse was placed in individual transparent Plexiglas chambers, and the number of writhes was counted during a 10 min observation period. […] For the antagonism studies, nor-BNI (20 mg/kg) was sc administered 24 h before 2 (5 mg/kg) and 17 (10 mg/kg) was sc administered 15 min before U50,488 (2 mg/kg).

human KOP receptor [7] = biological target: T2, human KOP receptor; conditions: ref 9a, cited from earlier work
human KOP receptor [8] = biological target: T2, human KOP receptor; conditions: percentage stimulation relative to the KOP full agonist U69,593; ref 9a; cited from earlier work
[9] = percentage stimulation relative to the KOP full agonist U69,593

Structure (SMILES)	Ki (human KOP receptor [3]) [nM]	Ki (human MOP receptor) [nM]	Ki (human DOP receptor [4]) [nM]	EC50 (human KOP receptor [5]) [nM]	Emax (human KOP receptor [5]; [9]) [%]	ED50 ([6]; sc) [mg/kg]	effect on rotarod latencies (motor behavior) (CD1 mice)	antagonism by nor-BNI of the antinociceptive effect [6]	selectivity DOP/KOP (human KOP receptor [3])	selectivity MOP/KOP (human KOP receptor [3])	other results
Oc1cccc(CCN(CCc2ccccc2)CC2CCC2)c1 [Compound 1]											effect on rotarod performance (evoked locomotor activity) (CD1 mice): did not affect the evoked locomotor activity; Ki (human DOP receptor [1]): > 10000 nM; antinociceptive ED50 (95% CI) [2]: 1.91 (1.02–3.58) mg/kg; antinociceptive potency compared to U50,488 (mice): 2 fold
Cl.Oc1cccc(CCN(CCc2ccccc2)CC2CCCCC2)c1F [Compound 19, 3-[2-[(Cyclohexylmethyl)(phenethyl)amino]ethyl]-2-fluorophenol Hydrochloride]	0.04 ± 0.006	851 ± 292	> 10000	2.77 ± 0.29	≥ 80	1.33	no significant alterations in rotarod latencies				
Oc1cccc(CCN(CCc2ccccc2)CC2CC2)c1 [Compound 2]						3.23		blocked by nor-BNI			inhibition of the writhing response ([6]; sc, different doses, 30 min after drug administration): Dose-dependent inhibition of the writhing response; effect on rotarod performance (evoked locomotor activity) (CD1 mice): did not affect the evoked locomotor activity; selectivity DOP/KOP (human KOP receptor [7]; Ki ratio DOP/KOP): >1700; selectivity MOP/KOP (human KOP receptor [7]; Ki ratio MOP/KOP): 140; Ki (human DOP receptor [1]): > 10000 nM; [35S]GTPγS KOP % stim (human KOP receptor [8]): 53.4 ± 8.1%; antinociceptive potency compared to U50,488 (mice): equipotent
Cl.Oc1cccc(CCN(CCc2ccccc2)CC2CCC2)c1F [Compound 18, 3-[2-[(Cyclobutylmethyl)(phenethyl)amino]ethyl]-2-fluorophenol Hydrochloride]	0.072 ± 0.027	398 ± 57	> 10000	6.9 ± 3.35	71.4	2.64	no significant alterations in rotarod latencies		>138000	5529	
Cl.Oc1cccc(CCN(CCc2ccccc2)CC2CCCCC2)c1 [Compound 4, 3-[2-[(Cyclohexylmethyl)(phenethyl)amino]ethyl]phenol Hydrochloride]	0.061 ± 0.027	537 ± 172	2140 ± 346	0.23 ± 0.08	61.9	1.01	no significant alterations in rotarod latencies	antagonized by the KOP antagonist nor-BNI	35066	8803	increase in agonist potency vs compound 1 (human KOP receptor [5]; EC50 comparison): 16 fold; [35S]GTPγS KOP % stim (human KOP receptor [5]; [9]): 61.9 ± 8.1%; reduction in antinociceptive potency vs compound 3 ([6]; sc, ED50 comparison): about 2 fold
Cl.Oc1cccc(CCN(CCc2ccccc2)CC2CCCC2)c1 [Compound 3, 3-[2-[(Cyclopentylmethyl)(phenethyl)amino]ethyl]phenol Hydrochloride]	0.017 ± 0.002	274 ± 20	2270 ± 625	3.87 ± 1.44	≥ 80	0.49	no significant alterations in rotarod latencies	antagonized by the KOP antagonist nor-BNI	133471	16118	increase in antinociceptive potency vs U50,488 ([6]; sc, ED50 comparison): about 3 fold; increase in antinociceptive potency vs compound 1 ([6]; sc, ED50 comparison): 4 fold; increase in antinociceptive potency vs compound 2 ([6]; sc, ED50 comparison): 7 fold
Cl.Oc1cccc(CCN(CCc2ccccc2)Cc2ccccc2)c1 [Compound 5, 3-[2-[(Benzyl)(phenethyl)amino]ethyl]phenol Hydrochloride]	0.71 ± 0.25	463 ± 95	1860 ± 501	4.65 ± 1.63	≥ 80	1.21			2623	652	
Cl.Oc1ccc(CCN(CCc2cccc(O)c2)CC2CCCCC2)cc1 [Compound 15, 3-[2-[(Cyclohexylmethyl)(4-hydroxyphenethyl)amino]ethyl]phenol Hydrochloride]	1.85 ± 0.07	234 ± 112	1640 ± 557	22.2 ± 7.2	≥ 80	1.9					
CC(C)CCN(CCc1ccccc1)CCc1cccc(O)c1.Cl [Compound 7, 3-[2-[(Isoamyl)(phenethyl)amino]ethyl]phenol Hydrochloride]	2.69 ± 0.43	259 ± 86	2740 ± 677	22.1 ± 3.1	74.7 ± 3.6	2.78			1020	96	
Cl.Oc1cccc(CCN(CCc2cccc(O)c2)CC2CCCCC2)c1 [Compound 11, 3,3′-[2,2′-(Cyclohexylmethylazanediyl)bis(ethane-2,1-diyl)]diphenol Hydrochloride]	0.14 ± 0.04	167 ± 52	1430 ± 506	17.6 ± 7.1	≥ 80	0.95			10229	1193	lower KOP affinity vs compound 4 (human KOP receptor [3]; Ki comparison): about 2 fold
